Assay results from PubChem BioAssay (NCI).
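Method: 48-hour compound exposure of cells in 96-well plates, five concentrations, linear interpolation of endpoints. GI50 is the concentration that inhibits growth by half. TGI: concentration producing complete growth inhibition.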

What was measured:
Experiment in all cases: NCI anticancer screen, dose series, 48 h
HL-60(TB) leukemia = system: HL-60(TB) leukemia
OVCAR-4 ovarian = system: OVCAR-4 ovarian
ACHN renal = system: ACHN renal
CCRF-CEM leukemia = system: CCRF-CEM leukemia
SK-OV-3 ovarian = system: SK-OV-3 ovarian
SK-MEL-2 melanoma = system: SK-MEL-2 melanoma
HCT-116 colon = system: HCT-116 colon
MDA-MB-435 = system: MDA-MB-435
RPMI-8226 leukemia = system: RPMI-8226 leukemia
KM12 colon = system: KM12 colon

Row | SMILES | TGI (HL-60(TB) leukemia) [µM] | TGI (OVCAR-4 ovarian) [µM] | TGI (ACHN renal) [µM] | TGI (CCRF-CEM leukemia) [µM] | TGI (SK-OV-3 ovarian) [µM] | TGI (SK-MEL-2 melanoma) [µM] | TGI (HCT-116 colon) [µM] | TGI (MDA-MB-435) [µM] | TGI (RPMI-8226 leukemia) [µM] | TGI (KM12 colon) [µM] | GI50 (HL-60(TB) leukemia) [µM] | GI50 (OVCAR-4 ovarian) [µM] | GI50 (ACHN renal) [µM] | GI50 (CCRF-CEM leukemia) [µM] | GI50 (SK-OV-3 ovarian) [µM] | GI50 (SK-MEL-2 melanoma) [µM] | GI50 (KM12 colon) [µM] | GI50 (MDA-MB-435) [µM] | GI50 (RPMI-8226 leukemia) [µM] | GI50 (HCT-116 colon) [µM]
1 | CN(CCCNC(=O)c1nn(-c2ccccc2)c2c1Cc1ccccc1-2)CCCNC(=O)c1nn(-c2ccccc2)c2c1Cc1ccccc1-2 | 2.5 | 1.85 | 3.12 | 2.42 | 3.23 | 2.69 | 2.87 | 2.87 | 4.22 | – | – | – | – | – | – | – | – | – | – | –
2 | Nc1csc(-c2scc3c2OCCO3)c1N | 50.8 | > 100 | > 100 | – | – | 40 | 46.4 | 36.1 | > 100 | 56.5 | – | – | – | – | – | – | – | – | – | –
3 | COc1ccc2c3c([nH]c2c1)[C@H](C=C(C)C)N1C(=O)[C@@H]2CCCN2C(=O)[C@@H]1C3 | > 100 | > 100 | > 100 | > 100 | 95.9 | > 100 | > 100 | > 100 | > 100 | > 100 | – | – | – | – | – | – | – | – | – | –
4 | CC(C)(C)COS(=O)OCC(C)(C)C | > 100 | > 100 | > 100 | > 100 | > 100 | > 100 | > 100 | > 100 | > 100 | > 100 | – | – | – | – | – | – | – | – | – | –
5 | CCC1=C(CC2NCCc3cc(OC)c(OC)cc32)CC2c3ccccc3CCN2C1 (centres undefined) | 46.5 | > 100 | > 100 | 33.6 | > 100 | 29.2 | > 100 | 25.8 | 30.4 | > 100 | – | – | – | – | – | – | – | – | – | –
6 | CC(NC(=O)c1ccc(OP(=O)(OCc2ccc([N+](=O)[O-])o2)N(C)CCCCCl)cc1)c1ccc(OCC2CCCCC2)c(C(N)=O)c1 (centres undefined) | 12.3 | 17.7 | > 35.4 | 0.842 | > 100 | 14.5 | 9.5 | 6.3 | 3.24 | 13.5 | – | – | – | – | – | – | – | – | – | –
7 | OC1CCSc2ccccc21 (centres undefined) | – | > 100 | > 100 | > 100 | > 100 | > 100 | > 100 | – | > 100 | > 100 | – | – | – | – | – | – | – | – | – | –
8 | CS(=O)(=O)Nc1cccc(-c2ccc3ncnc(Nc4cncc(Cl)c4)c3c2)c1 | 9.2 | > 100 | > 100 | > 100 | 4.99 | 7.35 | – | > 100 | 6.77 | > 100 | 2.66 | 4.16 | 1.11 | 3.09 | 1.34 | 2.64 | 2.92 | 3.2 | 2.14 | –
9 | CN(CCCN1CCCC1)CCCN(C)C(=O)Cc1ccc(Cl)c(Cl)c1 | 37.1 | > 96.1 | > 68.3 | 23.8 | > 89.6 | 28.2 | 39.3 | 11.7 | 22.4 | 60.5 | – | – | – | – | – | – | – | – | – | –
10 | O=C(NN1CCCCC1)c1cc2cc(CCl)ccc2oc1=O | 37.7 | 36.4 | > 100 | 67.5 | 42.6 | 28.9 | 38 | 42.1 | 59 | 49.4 | – | – | – | – | – | – | – | – | – | –
11 | CC12OC(C(=O)C13CCC3)C1C(=O)c3c(O)ccc(O)c3C(=O)C12 (centres undefined) | 2.39 | > 100 | 2.01 | > 100 | 54.3 | > 100 | 1.78 | 5.81 | 3.11 | 10.5 | 0.569 | 4.06 | 0.715 | 0.38 | 18.6 | 14.1 | 2.91 | 2.3 | 0.336 | 0.571
12 | c1ccc(C[N+]23C(CC[C@H]2c2ccccc2)CC[C@H]3c2ccccc2)cc1 (some centres undefined) | 57.4 | > 100 | > 100 | > 100 | > 100 | > 100 | > 100 | 54.8 | 26.4 | 78 | – | – | – | – | – | – | – | – | – | –
13 | COc1cc(S(=O)(=O)Nc2ccc(-c3csc(/N=C\c4cccc(Oc5ccccc5)c4)n3)cc2)ccc1Cl | 57.6 | > 100 | 71.8 | > 100 | – | > 100 | 92.6 | > 100 | 75.6 | > 100 | – | – | – | – | – | – | – | – | – | –
14 | COc1cc2cc[n+](C)c(Cc3ccc(Oc4cc(Cc5c6cc(OC)c(OC)cc6cc[n+]5C)ccc4OC)cc3)c2cc1OC | > 100 | > 100 | > 100 | > 100 | > 100 | > 100 | > 100 | > 100 | > 100 | > 100 | – | – | – | – | – | – | – | – | – | –
15 | Clc1cccc(/C=c2\nc(-c3ccccc3)n3c2nc2ccccc23)c1 | > 100 | > 100 | – | > 100 | > 100 | > 100 | > 100 | > 100 | > 100 | > 100 | – | – | – | – | – | – | – | – | – | –
16 | Cc1ccc(S(=O)(=O)Nc2cc(=O)[nH]c3c2CCC3)cc1 | > 100 | > 100 | > 100 | > 100 | > 100 | > 100 | > 100 | > 100 | > 100 | > 100 | – | – | – | – | – | – | – | – | – | –

Row | SMILES | TGI (HL-60(TB) leukemia) [µM] | TGI (OVCAR-4 ovarian) [µM] | TGI (ACHN renal) [µM] | TGI (CCRF-CEM leukemia) [µM] | TGI (SK-OV-3 ovarian) [µM] | TGI (SK-MEL-2 melanoma) [µM] | TGI (HCT-116 colon) [µM] | TGI (MDA-MB-435) [µM] | TGI (RPMI-8226 leukemia) [µM] | TGI (KM12 colon) [µM] | GI50 (HL-60(TB) leukemia) [µM] | GI50 (OVCAR-4 ovarian) [µM] | GI50 (ACHN renal) [µM] | GI50 (CCRF-CEM leukemia) [µM] | GI50 (SK-OV-3 ovarian) [µM] | GI50 (SK-MEL-2 melanoma) [µM] | GI50 (KM12 colon) [µM] | GI50 (MDA-MB-435) [µM] | GI50 (RPMI-8226 leukemia) [µM] | GI50 (HCT-116 colon) [µM]
17 | Cc1ccc([N+](=O)[O-])cc1S(=O)(=O)Nc1ccc(C2=NN(C(=O)c3ccccc3)C(c3ccccc3O)C2)cc1 (centres undefined) | 69.4 | 42.8 | 47.8 | > 100 | 84.5 | 46.4 | 28.4 | > 100 | > 100 | > 100 | – | – | – | – | – | – | – | – | – | –
18 | CN(CCc1ccccn1)c1ccc2c(c1)Cc1ccccc1-2 | 59.3 | 97.7 | > 100 | 68.8 | 68.6 | – | > 100 | > 100 | 84.7 | 37.7 | – | – | – | – | – | – | – | – | – | –
19 | C=C(CN(C)C)C(=O)c1ccccc1Cl | 29.6 | 40.8 | 32.5 | 44.3 | > 100 | 36.5 | 34 | – | 82.3 | > 75 | – | – | – | – | – | – | – | – | – | –
20 | CCCCSCCC(N)P(=O)(O)O (centres undefined) | > 100 | > 100 | > 100 | > 100 | > 100 | > 100 | > 100 | > 100 | > 100 | – | – | – | – | – | – | – | – | – | – | –
21 | Oc1ccc(Cl)cc1C1=Nn2c(COc3ccc4c(c3)CCCC4)nnc2SC1 | 38.2 | 13.8 | 49.7 | 46.3 | 42.4 | 31.1 | 19.4 | 36.1 | 19.3 | 29.8 | – | – | – | – | – | – | – | – | – | –
22 | O=C1CNc2cc(N3CCCCC3)ccc2N1 | > 100 | > 100 | > 100 | > 100 | > 100 | > 100 | – | > 100 | > 100 | > 100 | – | – | – | – | – | – | – | – | – | –
23 | CN(CCN1C(=O)c2cccc3cccc(c23)C1=O)CCN1C(=O)c2cccc3cccc(c23)C1=O | > 100 | > 100 | 20.7 | 6.91 | 16.6 | > 100 | > 100 | > 100 | – | > 100 | – | – | – | – | – | – | – | – | – | –
24 | COc1cc(/C=C2\CC3C4CC[C@H]5C[C@@H](O)CC[C@]5(C)C4CC[C@]3(C)\C2=N\O)cc(OC)c1OC (some centres undefined) | 55.8 | 37.9 | 39.8 | > 100 | 72.3 | 31.7 | 21.4 | 34.8 | 23.4 | 56.7 | – | – | – | – | – | – | – | – | – | –
25 | O=S(C(c1ccccc1)=P(c1ccccc1)(c1ccccc1)c1ccccc1)c1ccc(Cl)cc1 (centres undefined) | 45 | 98.3 | 60 | > 100 | 50.6 | 45.9 | 79.5 | 40.6 | > 100 | 57.2 | – | – | – | – | – | – | – | – | – | –
26 | CS(=O)(=O)Nc1ccc(NCc2cnc3ccc4[nH]cccc4c23)cc1 | 52.6 | 78.4 | > 100 | 58.5 | > 100 | 32 | 51.8 | 32.5 | 31 | 36.7 | – | – | – | – | – | – | – | – | – | –
27 | O=C1/C(=C/c2ccc([N+](=O)[O-])cc2)Sc2scc(-c3cccc([N+](=O)[O-])c3)[n+]21 | 1.07 | 31.4 | 14 | 1.3 | 30.6 | 30.8 | 18.1 | 18.4 | 11.4 | 24.6 | – | – | – | – | – | – | – | – | – | –
28 | C#C[C@]1(O)[C@@H](CO)O[C@@H](n2ccc(=O)[nH]c2=O)[C@@H]1O | > 100 | 45.3 | 0.602 | > 100 | > 100 | 3.32 | – | 3 | > 100 | > 100 | – | – | – | – | – | – | – | – | – | –
29 | NC(N)=N/N=C/c1c(-c2cccs2)nc2n1CCS2 | – | – | 40.9 | 34 | > 100 | > 100 | – | 30.7 | 39.9 | 29.2 | – | – | 20.8 | 17.2 | > 100 | 43.3 | 14.2 | 16.7 | 18.6 | –
30 | CCOC(=O)c1cccc(N=Nc2ncc(/C=C/C(=O)OC)[nH]2)c1 | 30 | > 100 | 72 | > 100 | > 100 | > 100 | 69.7 | > 100 | 40.5 | 82.2 | – | – | – | – | – | – | – | – | – | –
31 | COc1ccc(-n2nc(C(=O)c3ccccc3)c3nn4c(=O)cc(-c5ccccc5)nc4nc32)cc1 | > 100 | > 100 | > 100 | > 100 | > 100 | > 100 | > 100 | > 100 | > 100 | > 100 | 29.6 | 30.5 | 45.9 | 28.9 | 74.2 | 45.8 | 46.5 | 51.9 | 40 | > 100
